Patent publication US5604219A, “Indolocarbazole derivatives that stimulate platelet production” (Kyowa Hakko Kogyo Co., Ltd., priority 1994, dated 1997)

Key:
[1] = system: bone marrow cells (megakaryocyte colony formation); test: Megakaryocyte colony formation-stimulating activity (Test Example 1); format: cell-based, BALB/c mouse; conditions: with IL-3 (100 U/ml), 7 days, control (IL-3 alone) defined as 100
Method: An eight-weeks-old BALB/c mouse was killed. Its femurs and cervical vertebrae were taken out, and both end sections thereof were cut off. Bone marrow cells were collected from the pieces cut off from the femurs and cervical vertebrae using a syringe containing IMDM (430-2200EA prepared by Gibco Co.), and then blown into a test tube. The test tube was allowed to stand for 5 minutes, and the supernatant was collected with a piper. To a reaction mixture comprising the bone marrow cells (50,000 cells), bovine serum albumin (2%: A4508 made by Sigma Co.), transferrin (600 μg/ml: 652202 made by Boehringer Mannheim Co.), IL-3 (100 U/ml), cholesterol (16 μg/ml: 036-0641 made by Wako Co.) and agar (0.6%: 0142-02 made by Difco Laboratories) were separately added the test compounds at various concentrations, and 1 ml each of the mixtures was put into a 35-mm dish (Lux Co.), followed by incubation under the conditions of 37° C. 5% CO2 and a humidity of 95% or more for 7 days. Separately, IL-3 alone was added to the bone marrow cells to prepare a control. After the incubation was completed, the agar was dried over a filter paper (1001-055 made by Whatman Co.) and then fixed with 2.5% glutaraldehyde, followed by acetylcholinesterase staining (ACHE staining).
The ACHE staining was carried out by the method described below.
ACHE staining: To each sample was added a solution comprising 0.67 mg/ml acetylthiocholine iodide, 2.94 mg/ml sodium citrate, 7.5 mg/ml copper (II) sulfate and 1.65 mg/ml potassium ferricyanide, and the mixture was allowed to stand at room temperature in the dark for 4-6 hours.
A group of 4 or more megakaryocytes which were stained reddish brown was regarded as a colony, and the number of colonies per dish was calculated using a microscope. The results are shown in Table 2 as relative values to the control.

platelets = test: Platelet production-stimulating activity in mice (Test Example 2); format: in vivo, male BALB/c mice; conditions: intraperitoneal, once a day for 5 days, platelets counted on day 15, A test group, B control group
Text: A test compound was intraperitoneally administered to four 7-week-old male BALB/c mice per group once a day for consecutive 5 days (day 1 to day 5). A control group (4 mice per group) received only the solvent (5% Tween water). The blood was collected from the fundus oculi vein of each animal on the 15th day from the start of administration (day 15), and the number of the platelets was counted with a microcell counter (Model CC-180A, manufactured by Toa Iryo Denshi Co.). The rate of increase of the number of platelets in the test group (average) over the control (average) was calculated according to the following formula to evaluate the effect of the test compound.
Rate of Increase = A/B × 100
A: the number of platelets in test group
B: the number of platelets in control group

CN[C@@H]1C[C@H]2O[C@@](C)([C@@H]1OC)n1c3ccccc3c3c4c(c5c6ccccc6n2c5c31)C(=O)N(CO)C4 [Compound 1]
Rel. Value (number of megakaryocyte colonies per dish, relative to control) ([1]; Concn. 1 nM): 129

CN[C@@H]1C[C@H]2O[C@@](C)([C@@H]1OC)n1c3ccccc3c3c4c(c5c6cc(C)ccc6n2c5c31)C(=O)N(C)C4 [Compound 8]
Rate of increase (number of platelets, A/B × 100) (platelets; 25 mg/kg): 134% | Rel. Value (number of megakaryocyte colonies per dish, relative to control) ([1]; Concn. 10 nM): 157

CN[C@@H]1C[C@H]2O[C@@](C)([C@@H]1OC)n1c3ccccc3c3c4c(c5c6cc(N)ccc6n2c5c31)C(=O)N(C)C4 [Compound 12]
Rel. Value (number of megakaryocyte colonies per dish, relative to control) ([1]; Concn. 10 nM): 126

CN[C@@H]1C[C@H]2O[C@@](C)([C@@H]1OC)n1c3ccc(N)cc3c3c4c(c5c6cc(N)ccc6n2c5c31)C(=O)N(C)C4 [Compound 16]
Rel. Value (number of megakaryocyte colonies per dish, relative to control) ([1]; Concn. 1 nM): 125

CN[C@@H]1C[C@H]2O[C@@](C)([C@@H]1OC)n1c3ccc(OC(=O)C(C)(C)C)cc3c3c4c(c5c6cc(OC(=O)C(C)(C)C)ccc6n2c5c31)C(=O)N(C)C4 [Compound 22]
Rate of increase (number of platelets, A/B × 100) (platelets; 50 mg/kg): 168%

CN[C@@H]1C[C@H]2O[C@@](C)([C@@H]1OC)n1c3ccccc3c3c4c(c5c6cc(C=NN(C)C)ccc6n2c5c31)C(=O)N(C)C4 [Compound 28]
Rate of increase (number of platelets, A/B × 100) (platelets; 12.5 mg/kg): 156% | Rel. Value (number of megakaryocyte colonies per dish, relative to control) ([1]; Concn. 1 nM): 134

CN[C@@H]1C[C@H]2O[C@@](C)([C@@H]1OC)n1c3ccccc3c3c4c(c5c6cc(CSCCN(C)C)ccc6n2c5c31)C(=O)N(C)C4 [Compound 30]
Rel. Value (number of megakaryocyte colonies per dish, relative to control) ([1]; Concn. 1 nM): 116
